#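 Following 48 hours of exposure in 96-well plates, responses at five concentrations were used to interpolate endpoints linearly. GI50 is the concentration that inhibits growth by half. Definition used: TGI = concentration required for complete inhibition of growth.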
# Columns and labels:
# Test in all cases: NCI tumour cell line growth inhibition, 48 h
# [1] = system: 786-0 renal
# [2] = system: K-562 leukemia
# [3] = system: HCT-15 colon
# [4] = system: T-47D breast
# [5] = system: OVCAR-4 ovarian
# [6] = system: NCI-H23 lung
# [7] = system: KM12 colon
# [8] = system: SW-620 colon
# [9] = system: SNB-75 CNS
# [10] = system: UO-31 renal
SMILES,GI50 [1] [µM],TGI [1] [µM],GI50 [2] [µM],TGI [2] [µM],GI50 [3] [µM],TGI [3] [µM],GI50 [4] [µM],TGI [4] [µM],GI50 [5] [µM],TGI [5] [µM],GI50 [6] [µM],TGI [6] [µM],GI50 [7] [µM],TGI [7] [µM],GI50 [8] [µM],TGI [8] [µM],GI50 [9] [µM],TGI [9] [µM],GI50 [10] [µM],TGI [10] [µM]
Cc1ccc(-c2cc(-c3ccc(C)cc3)nc(N3CCN(CCNc4ccnc5cc(Cl)ccc45)CC3)n2)cc1,1.81,6.95,2.4,> 50,3.42,24.5,3.21,17.9,0.912,1.9,3.63,17.5,5.7,39.2,1.82,6.32,0.949,2.23,1.16,5.53
Clc1ccc2nc(Cl)c3ccccc3c2c1,9.32,60.8,> 100,> 100,> 100,> 100,4.02,> 100,2.03,5.02,74.9,> 100,15.4,> 100,> 100,> 100,2.09,8.16,3.82,38.1
CCOC(=O)c1ccccc1SC(C[N+](=O)[O-])c1ccccc1 (stereo not given),2.23,4.97,3.01,16,2.37,6.78,5.32,42.6,12.9,25.5,12.3,35.1,3.21,10.4,2.04,4.7,12.7,41.6,2.43,7.22
CCOc1cc2c(=O)oc3c(OC)ccc4ccc(c1OC)c2c43,,> 100,,> 100,,> 100,,> 100,,> 100,,> 100,,> 100,,> 100,,> 100,,> 100
O=C(Cn1c(C(=O)c2ccc(Cl)cc2)nc(-c2ccccc2)c1-c1ccccc1)c1ccc(Cl)cc1,> 100,> 100,> 100,> 100,> 100,> 100,> 100,> 100,> 100,> 100,> 100,> 100,> 100,> 100,> 100,> 100,> 100,> 100,> 100,> 100
Nc1nc(-c2ccc(Cl)cc2)cc(-c2ccc(Cl)cc2)c1-c1nc2ccccc2o1,17.9,36.4,13.7,52.3,17.2,34.8,13.4,29.6,18.5,35.5,17.8,37.3,12.2,27.2,17.5,33.3,15,30,14.8,29.9
OCCn1cc(-c2cnc3nnn(Cc4ccc5ncccc5c4)c3n2)cn1,> 100,> 100,> 100,> 100,> 100,> 100,> 100,> 100,> 100,> 100,> 100,> 100,> 100,> 100,> 100,> 100,> 100,> 100,> 100,> 100
COc1cc(OC)c(F)c(COc2cnc(Nc3cnn(CCO)c3)nc2)c1F,1.75,> 100,0.343,> 100,0.482,> 100,1.68,> 100,0.617,> 100,1.86,> 100,0.431,7.23,0.412,> 100,0.203,2.32,0.556,> 20.5
CCCCCCCCNC(C)C(O)c1ccc(SC(C)C)cc1 (stereo not given),1.73,3.34,1.88,3.8,1.7,3.29,1.32,2.85,1.79,3.25,1.58,3.13,1.76,3.18,1.74,3.29,1.72,3.26,1.77,3.32
Fc1cccc(Cl)c1Cn1c(-c2c(F)cccc2Cl)nc2ccccc21,21,42.6,10.1,> 100,16.4,42.9,13.9,62.9,23.6,58.3,31.2,> 100,14.6,42.4,16.8,38,22.1,69.3,12.4,28.4
Fc1ccc([C@@H]2CCNC[C@H]2COc2ccc3c(c2)OCO3)cc1,12.3,25.7,2.32,6.24,11,27,5.53,20.4,10.6,23.1,15.4,32.5,3.86,14.1,10.6,24.2,1.32,7.61,5.76,19.6
O=C(Nc1ccc(Nc2ccncc2)cc1)c1ccc(Nc2ccnc3ccc([N+](=O)[O-])cc23)cc1[N+](=O)[O-],6.03,42.4,36.4,> 100,35.6,> 100,6.39,34.9,6.01,> 79.1,20.6,> 100,6.47,> 100,26.8,> 55.5,16,50.6,7.33,> 64.1

# — PubChem BioAssay (NCI)
